This is an account of results in patent US11413278B2, “Compounds and methods for promoting stress resistance” (priority 2015, dated 2022).

Several values for one entry are separate records, joined by “and”; a condition that tells them apart may be missing. Identical values can stand only once.

In one series the test system is DNA. Put plainly: Comet assay (DNA damage). Format: cell-based. The note with it: preliminary analysis.
A further series addresses T1, SENP7 (Homo sapiens, UniProt Q9BQF6).
T1 sequence (Q9BQF6 1-1050): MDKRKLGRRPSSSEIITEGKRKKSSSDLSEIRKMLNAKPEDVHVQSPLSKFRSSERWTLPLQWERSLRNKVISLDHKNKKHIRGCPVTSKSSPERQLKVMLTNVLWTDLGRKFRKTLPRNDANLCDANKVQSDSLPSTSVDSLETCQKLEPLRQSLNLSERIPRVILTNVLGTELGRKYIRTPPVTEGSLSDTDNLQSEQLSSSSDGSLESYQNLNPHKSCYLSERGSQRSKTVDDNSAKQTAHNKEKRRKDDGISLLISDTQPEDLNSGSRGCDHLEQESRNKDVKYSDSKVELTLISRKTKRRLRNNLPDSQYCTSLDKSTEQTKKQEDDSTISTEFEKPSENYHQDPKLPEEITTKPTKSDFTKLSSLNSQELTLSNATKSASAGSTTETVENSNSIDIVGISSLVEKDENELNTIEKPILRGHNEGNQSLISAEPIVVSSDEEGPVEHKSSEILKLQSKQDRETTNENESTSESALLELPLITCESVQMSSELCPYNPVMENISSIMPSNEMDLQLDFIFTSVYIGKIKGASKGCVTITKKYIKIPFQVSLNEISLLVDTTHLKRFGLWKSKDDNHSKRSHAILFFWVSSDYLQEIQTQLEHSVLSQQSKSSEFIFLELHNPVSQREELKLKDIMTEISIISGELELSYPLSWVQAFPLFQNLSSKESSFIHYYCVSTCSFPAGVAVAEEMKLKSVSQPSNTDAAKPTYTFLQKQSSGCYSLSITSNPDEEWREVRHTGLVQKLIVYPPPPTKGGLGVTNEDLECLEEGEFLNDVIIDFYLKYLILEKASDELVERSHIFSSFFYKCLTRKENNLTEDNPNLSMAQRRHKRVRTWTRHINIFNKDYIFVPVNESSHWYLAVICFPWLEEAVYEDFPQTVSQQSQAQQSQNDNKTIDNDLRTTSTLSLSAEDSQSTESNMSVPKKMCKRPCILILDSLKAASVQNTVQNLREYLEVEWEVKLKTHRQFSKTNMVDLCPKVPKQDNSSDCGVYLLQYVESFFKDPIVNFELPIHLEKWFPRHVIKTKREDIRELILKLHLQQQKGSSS
The note with it: 2 screens; 5.0 μM or 12. μM; cited from earlier work.

The target in a further series is T2, SENP6 (Homo sapiens, UniProt Q9GZR1).
T2 sequence (Q9GZR1 1-1112): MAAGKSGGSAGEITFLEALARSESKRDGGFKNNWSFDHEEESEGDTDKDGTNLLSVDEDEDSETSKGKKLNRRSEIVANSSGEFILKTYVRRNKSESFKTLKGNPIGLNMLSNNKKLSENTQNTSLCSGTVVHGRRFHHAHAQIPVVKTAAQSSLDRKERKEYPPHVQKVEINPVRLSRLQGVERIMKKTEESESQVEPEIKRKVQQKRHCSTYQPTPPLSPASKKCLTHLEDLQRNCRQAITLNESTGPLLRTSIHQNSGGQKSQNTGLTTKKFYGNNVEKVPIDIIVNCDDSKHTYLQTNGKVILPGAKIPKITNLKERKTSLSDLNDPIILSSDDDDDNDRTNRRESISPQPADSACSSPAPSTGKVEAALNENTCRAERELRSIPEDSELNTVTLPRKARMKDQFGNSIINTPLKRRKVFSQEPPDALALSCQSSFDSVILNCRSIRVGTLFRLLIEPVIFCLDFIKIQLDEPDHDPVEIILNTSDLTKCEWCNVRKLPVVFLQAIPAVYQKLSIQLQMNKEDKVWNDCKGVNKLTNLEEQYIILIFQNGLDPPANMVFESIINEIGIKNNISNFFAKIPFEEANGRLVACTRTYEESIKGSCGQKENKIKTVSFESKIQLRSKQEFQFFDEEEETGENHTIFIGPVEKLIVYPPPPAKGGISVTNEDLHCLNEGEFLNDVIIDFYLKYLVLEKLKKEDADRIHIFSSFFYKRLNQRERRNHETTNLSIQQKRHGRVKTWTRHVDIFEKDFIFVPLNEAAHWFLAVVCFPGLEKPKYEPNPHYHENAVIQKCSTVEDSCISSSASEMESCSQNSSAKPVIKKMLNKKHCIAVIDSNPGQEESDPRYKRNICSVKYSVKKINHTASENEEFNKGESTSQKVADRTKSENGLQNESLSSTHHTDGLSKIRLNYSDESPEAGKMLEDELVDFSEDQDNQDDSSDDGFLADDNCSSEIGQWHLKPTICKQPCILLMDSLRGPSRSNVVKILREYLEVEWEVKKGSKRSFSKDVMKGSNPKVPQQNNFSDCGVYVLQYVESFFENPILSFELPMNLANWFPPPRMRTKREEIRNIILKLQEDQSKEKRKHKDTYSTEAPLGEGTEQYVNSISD
The note with it: 2 screens; 10.0 μM or 12. μM; cited from earlier work.

In another series the test system is NFKBIA. The note with it: two screens; read-out: NFKBIA induction, EC50; cited from earlier work.
The test system of series [1] is two breast cancer-derived tumor cell lines. Put plainly: Viability of breast cancer-derived tumor cell lines. Format: cell-based. The note with it: 5 μM.

In the case of `O=C(NCc1cccnc1)/C(=C\c1cccc(Oc2ccccc2)c1)S(=O)(=O)c1ccccc1` [Gr-7A], the “Fraction of damaged DNA with long comet tails” value with DNA is listed as “significantly increased the fraction of damaged DNA with long comet tails”.

In the case of `Cc1ccc(NC(=O)c2ccc([N+](=O)[O-])o2)cc1C` [Gr-1F], at SENP7, the SENP7 inhibition was around 90%. The SENP6 inhibition on SENP6 is reported as around 80%.

With `Nc1ccccc1S(=O)(=O)Nc1cccc2cccnc12` [Gr-3C], the EC50 with NFKBIA was 8.5 µM and 11 µM. For `O=[N+]([O-])c1ccccc1S(=O)(=O)Nc1cccc2cccnc12` [Gr-3A], the EC50 in the series on NFKBIA is 11 µM and 12 µM.

For the molecule `[O-][n+]1onc2c3nsnc3c(Br)cc21` [O17], in series [1], the “Cell viability in two breast cancer-derived tumor cell lines” value is “significantly reduce cell viability”. With `O=C(c1ccc([N+](=O)[O-])o1)N1CCc2ccccc21` [O13], on SENP6, the SENP6 inhibition is recorded as around 50%.

By EC50 is commonly meant the midpoint of the concentration-response curve.
